Measured values: US11634419B2, “Dimethyl amino azetidine amides as JAK inhibitors” (THERAVANCE BIOPHARMA R&D IP, LLC, priority 2018, dated 2023)

Experiments:
Lung S9 metabolism = format: in vitro ADME, human; details: for Compound Remaining at 60 min (%): human lung S9, 1 μM compound, 1 mg/mL S9 protein, NADPH and PAPS; for Sulfate Appearance: qualitative, O-sulfate metabolite peak in human lung S9
Description: The time 0, 15, 30, and 60 minute samples were analyzed for parent compound by high resolution LC-MS/MS. Lung S9 fractions from human (lot 1410245) were purchased from XenoTech LLC (Lenexa, Kans.). NADPH (Sigma Aldrich, N1630) and 3-phosphoadenosine 5-phosphosulfate (PAPS) (Sigma Aldrich, A1651) were purchased from Sigma Aldrich (St. Louis, Mo.). Acetonitrile and water were obtained from VWR (Radnor, Pa.) and were of HPLC grade or better. Raloxifene and formic acid was purchased from Sigma Aldrich (St. Louis, Mo.). Lung S9 incubations were performed in a water bath at 37° C. in a 96-well polypropylene plate. […] Louis, Mo.), 3 mM magnesium chloride (Sigma Aldrich, M1028) and in the presence of 100 μM PAPS (Sigma-Aldrich, St. […] Incubation volumes consisted of 400 μL and time points were taken at 0, 15, 30, and 60 minutes by the removal of a 70 μL aliquot and dilution into 140 μL acetonitrile (0% formic acid). All samples were centrifuged at 2250 g for 10 minutes at 5° C. Supernatant (50 μL) was taken from the centrifuged samples and diluted into 100 μL HPLC water containing internal standard. The samples were run on a Dionex Ultimate 3000 Auto sampler and analyzed using a Thermo Q-Exactive High Resolution Mass Spectrometer (Thermo, Waltham, Mass.) in Full Scan mode in conjunction with an Atlantis T3 column 3 μM−2.1×50 mm (Waters Inc., 186003717). Mobile Phase A consisted of Water+0.2% formic acid and Mobile Phase B consisted of acetonitrile+0.2% formic acid. Peak integration was accomplished using Gubbs GMSU software (Gubbs Inc., Alpharetta, Ga.). For each sample, peak area ratios were calculated by dividing the analyte peak area by the internal standard peak area. For each incubation, the peak area ratios of the analytes in each t0 was set to 100%, and the peak areas ratios from the 60 minute samples were converted to percentages remaining relative to the corresponding t0. Determination of sulfate metabolite formation was made qualitatively by observation of early-eluting peak in the parent ion channel which, based on historical internal data, corresponded to the O-sulfate metabolite of each parent compound.

[1] = Pharmacokinetics in plasma and lung in mouse; format: in vivo; details: single oral aspiration, 0.2 mg/mL, 50 μL
Description: Plasma and lung concentrations of test compounds and ratios thereof were determined in the following manner. BALB/c mice from Charles River Laboratories were used in the assay. Test compounds were individually formulated in 20% propylene glycol in pH 4 citrate buffer at a concentration of 0.2 mg/mL and 50 μL of the dosing solution was introduced into the trachea of a mouse by oral aspiration. At various time points (typically 0.167, 2, 6, 24 hr) post dosing, blood samples were removed via cardiac puncture and intact lungs were excised from the mice.

[2] = system: IFNγ secretion in mixed lymphocyte reaction; experiment: Inhibition of IFNγ secretion in a mixed lymphocyte reaction assay; format: cell-based, human; details: summary statement
Description: The mixed lymphocyte reaction assay is an in-vitro assay that mimics transplant rejection. T cells from one donor are cultured with allogeneic dendritic cells from another donor. This reaction induces a cellular immune response such as IFNγ secretion. CD14+ monocytes were isolated from human whole blood (Stanford blood center) of donor A using a ficoll gradient and magnetic seperation (CD14 microbeads, Miltenyi). […] Cells were harvested, washed with media, re-suspended to 400,000 cells/ml in media and plated at 10,000 cells/well/25 μl. CD4+ T cells were freshly isolated from human whole blood (Stanford blood center) of donor B using a ficoll gradient and magnetic separation (CD4+ T cell isolation kit, Miltenyi). T cells were re-suspended to 4,000,000 cells/ml in RPMI (Life Technologies) supplemented with 10% Fetal Bovine Serum (FBS, Life Technologies), 2 mM Glutamax (Life Technologies), 25 mM HEPES (Life Technologies) and 1× Pen/Strep (Life Technologies). CD4+ T cells were mixed with the dendritic cells at 100,000 cells/well/25p. […] On day 5, supernatants were collected and measured for interferon gamma (INFγ) using enzyme linked immunosorbent assay (ELISA). Percent inhibition was determined by compound inhibitory potency against IFNγ secretion compared to vehicle treated cells. […]

human JAK1 = human JAK1 (Homo sapiens (Human), UniProt P23458); experiment: Co-crystal structure with JAK1; details: resolution 2.28 Å
From the text: A co-crystal structure was obtained of compound C-1 bound to human JAK1 at a resolution of 2.28 Å. […] Seven specific hydrogen bonding interactions were identified based upon a distance of 3.5 Å or less between donor and acceptor atoms. Of particular note, a hydrogen bonding interaction was identified between the carbonyl of the exocyclic amide of the compound of C-1 and the sidechain of Arg879 of JAK1. A similar interaction can be expected for the compounds of the invention.

Chain of human JAK1 (P23458 whole entry): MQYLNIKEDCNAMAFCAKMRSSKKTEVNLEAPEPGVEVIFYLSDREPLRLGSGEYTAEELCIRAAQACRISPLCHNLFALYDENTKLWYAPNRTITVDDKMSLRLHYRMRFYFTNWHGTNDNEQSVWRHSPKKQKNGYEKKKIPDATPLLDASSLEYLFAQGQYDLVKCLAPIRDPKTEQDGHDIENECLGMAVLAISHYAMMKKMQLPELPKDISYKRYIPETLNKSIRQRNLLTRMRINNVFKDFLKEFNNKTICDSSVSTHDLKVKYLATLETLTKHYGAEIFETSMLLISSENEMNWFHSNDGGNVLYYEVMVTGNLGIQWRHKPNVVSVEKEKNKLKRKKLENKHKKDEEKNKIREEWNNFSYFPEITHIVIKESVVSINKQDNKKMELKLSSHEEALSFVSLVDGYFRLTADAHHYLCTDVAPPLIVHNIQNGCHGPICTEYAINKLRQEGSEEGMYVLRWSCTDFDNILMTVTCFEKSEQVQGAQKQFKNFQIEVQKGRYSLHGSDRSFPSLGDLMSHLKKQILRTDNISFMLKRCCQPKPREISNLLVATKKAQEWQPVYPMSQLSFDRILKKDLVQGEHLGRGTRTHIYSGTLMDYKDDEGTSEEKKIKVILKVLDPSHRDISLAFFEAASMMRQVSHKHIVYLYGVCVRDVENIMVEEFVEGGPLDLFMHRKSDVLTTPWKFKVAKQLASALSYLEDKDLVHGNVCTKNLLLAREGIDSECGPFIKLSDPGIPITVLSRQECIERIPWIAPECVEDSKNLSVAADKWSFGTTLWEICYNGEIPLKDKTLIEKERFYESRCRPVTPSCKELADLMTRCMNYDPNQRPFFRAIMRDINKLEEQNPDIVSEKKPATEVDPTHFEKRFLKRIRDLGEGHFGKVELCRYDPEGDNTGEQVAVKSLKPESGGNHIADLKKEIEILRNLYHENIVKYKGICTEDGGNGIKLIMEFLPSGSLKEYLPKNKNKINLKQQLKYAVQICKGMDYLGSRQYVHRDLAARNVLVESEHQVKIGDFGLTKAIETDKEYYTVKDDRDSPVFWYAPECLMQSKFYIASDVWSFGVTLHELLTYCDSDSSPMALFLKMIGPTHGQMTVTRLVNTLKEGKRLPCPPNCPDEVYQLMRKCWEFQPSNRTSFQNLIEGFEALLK

SMILES	Compound Remaining at 60 min (%) (Lung S9 metabolism)	Sulfate Appearance (Lung S9 metabolism)	Plasma AUC(0-24) [1] [ng·h/mL]	inhibition of IFNγ secretion in mixed lymphocyte reaction (in words) [2]	binding site observed in co-crystal structure (human JAK1)
CCc1cc(O)ccc1-c1ccc2c(-c3nc4c([nH]3)CN(C(C)C)[C@H](C(=O)N3CC(N(C)C)C3)C4)n[nH]c2c1 [Compound 1, (S)-(3-(dimethylamino)azetidin-1-yl)(2-(6-(2-ethyl-4-hydroxyphenyl)-1H-indazol-3-yl)-5-isopropyl-4,5,6,7-tetrahydro-3H-imidazo[4,5-c]pyridin-6-yl)methanone]	81	Yes	943	effectively inhibit IFNγ secretion	–
CCc1cc(O)ccc1-c1ccc2c(-c3nc4c([nH]3)CN(CC)[C@H](C(=O)N3CC(N(C)C)C3)C4)n[nH]c2c1 [Compound 2, (S)-(3-(dimethylamino)azetidin-1-yl)(5-ethyl-2-(6-(2-ethyl-4-hydroxyphenyl)-1H-indazol-3-yl)-4,5,6,7-tetrahydro-3H-imidazo[4,5-c]pyridin-6-yl)methanone]	98	Yes	–	–	–
CCc1cc(O)ccc1-c1ccc2c(-c3nc4c([nH]3)CN(CC)[C@H](C(=O)N3CC(C)(N(C)C)C3)C4)n[nH]c2c1 [Compound 3, (S)-(3-(dimethylamino)-3-methylazetidin-1-yl)(5-ethyl-2-(6-(2-ethyl-4-hydroxyphenyl)-1H-indazol-3-yl)-4,5,6,7-tetrahydro-3H-imidazo[4,5-c]pyridin-6-yl)methanone]	97	Yes	–	–	–
CCc1cc(O)ccc1-c1ccc2c(-c3nc4c([nH]3)CN(C(C)C)[C@H](C(=O)N3CC(C)(N(C)C)C3)C4)n[nH]c2c1 [Compound 4, (S)-(3-(dimethylamino)-3-methylazetidin-1-yl)(2-(6-(2-ethyl-4-hydroxyphenyl)-1H-indazol-3-yl)-5-isopropyl-4,5,6,7-tetrahydro-3H-imidazo[4,5-c]pyridin-6-yl)methanone]	100	Yes	–	–	–
CCCN1Cc2[nH]c(-c3n[nH]c4cc(-c5ccc(O)cc5CC)ccc34)nc2C[C@H]1C(=O)N1CC(N(C)C)C1 [Compound 5, (S)-(3-(dimethylamino)azetidin-1-yl)(2-(6-(2-ethyl-4-hydroxyphenyl)-1H-indazol-3-yl)-5-propyl-4,5,6,7-tetrahydro-3H-imidazo[4,5-c]pyridin-6-yl)methanone]	96	Yes	–	–	–
CCCN1Cc2[nH]c(-c3n[nH]c4cc(-c5ccc(O)cc5CC)ccc34)nc2C[C@H]1C(=O)N1CC(C)(N(C)C)C1 [Compound 6, (S)-(3-(dimethylamino)-3-methylazetidin-1-yl)(2-(6-(2-ethyl-4-hydroxyphenyl)-1H-indazol-3-yl)-5-propyl-4,5,6,7-tetrahydro-3H-imidazo[4,5-c]pyridin-6-yl)methanone]	90	Yes	–	–	–
CCc1cc(O)c(F)cc1-c1ccc2c(-c3nc4c([nH]3)CN(C(C)C)[C@H](C(=O)N3CC(N(C)C)C3)C4)n[nH]c2c1 [Compound C-1, (S)-(3-(dimethylamino)azetidin-1-yl)(2-(6-(2-ethyl-5-fluoro-4-hydroxyphenyl)-1H-indazol-3-yl)-5-isopropyl-4,5,6,7-tetrahydro-3H-imidazo[4,5-c]pyridin-6-yl)methanone, reference compound]	6	Yes	–	–	bind in the ATP binding site
CCc1cc(O)c(F)cc1-c1ccc2c(-c3nc4c([nH]3)CN(CC)[C@H](C(=O)N3CC(N(C)C)C3)C4)n[nH]c2c1 [Compound C-2, (S)-(3-(dimethylamino)azetidin-1-yl)(5-ethyl-2-(6-(2-ethyl-5-fluoro-4-hydroxyphenyl)-1H-indazol-3-yl)-4,5,6,7-tetrahydro-3H-imidazo[4,5-c]pyridin-6-yl)methanone, reference compound]	6	Yes	–	–	–
CCc1cc(O)c(F)cc1-c1ccc2c(-c3nc4c([nH]3)CN(CC)[C@H](C(=O)N3CC(C)(N(C)C)C3)C4)n[nH]c2c1 [Compound C-3, (S)-(3-(dimethylamino)-3-methylazetidin-1-yl)(5-ethyl-2-(6-(2-ethyl-5-fluoro-4-hydroxyphenyl)-1H-indazol-3-yl)-4,5,6,7-tetrahydro-3H-imidazo[4,5-c]pyridin-6-yl)methanone, reference compound]	5	Yes	–	–	–
CCc1cc(O)c(F)cc1-c1ccc2c(-c3nc4c([nH]3)CN(C(C)C)[C@H](C(=O)N3CC(C)(N(C)C)C3)C4)n[nH]c2c1 [Compound C-4, (S)-(3-(dimethylamino)-3-methylazetidin-1-yl)(2-(6-(2-ethyl-5-fluoro-4-hydroxyphenyl)-1H-indazol-3-yl)-5-isopropyl-4,5,6,7-tetrahydro-3H-imidazo[4,5-c]pyridin-6-yl)methanone, reference compound]	4	Yes	–	–	–
CCCN1Cc2[nH]c(-c3n[nH]c4cc(-c5cc(F)c(O)cc5CC)ccc34)nc2C[C@H]1C(=O)N1CC(N(C)C)C1 [Compound C-5, (S)-(3-(dimethylamino)azetidin-1-yl)(2-(6-(2-ethyl-5-fluoro-4-hydroxyphenyl)-1H-indazol-3-yl)-5-propyl-4,5,6,7-tetrahydro-3H-imidazo[4,5-c]pyridin-6-yl)methanone, reference compound]	5	Yes	–	–	–
CCCN1Cc2[nH]c(-c3n[nH]c4cc(-c5cc(F)c(O)cc5CC)ccc34)nc2C[C@H]1C(=O)N1CC(C)(N(C)C)C1 [Compound C-6, (S)-(3-(dimethylamino)-3-methylazetidin-1-yl)(2-(6-(2-ethyl-5-fluoro-4-hydroxyphenyl)-1H-indazol-3-yl)-5-propyl-4,5,6,7-tetrahydro-3H-imidazo[4,5-c]pyridin-6-yl)methanone, reference compound]	4	Yes	–	–	–
